Test system: B16 cells
Experiment: Sugar chain extension reaction in B16 cells with saccharide primer (HPTLC, densitometer)
Type: cell-based, mouse
Details: for extended sugar chain product detected by HPTLC: B16 cells 2.0×10^6 cells/plate, 48 hours, medium fraction and cell fraction, resorcinol staining
Method: When a saccharide primer is administered to the sugar chain-synthesizing cell described above, this cell reacts with the saccharide primer, and as a result, a desired sugar chain can be obtained. Specifically, a saccharide primer is administered at a concentration of 50 μM to a medium in which sugar chain-synthesizing cells (for example, B16 cells) are cultured, and the mixture is incubated at 37° C. for about 2 days. During that period, the saccharide primer is introduced into the cells, a sugar is added to the saccharide primer, and various types of sugar chains are produced in the culture liquid. The sugar chains are recovered from the culture liquid by a method known to a person skilled in the art, for example, a lectin column or a commercially available sugar chain purification kit.
First, the saccharide primer Lac-C12 and the saccharide primer Lac-C13:1(2) were added to each medium in which B16 cells (mouse melanoma cells strongly expressing GM3) (Japan Health Science Foundation, Health Science Research Resources Bank) were plated at a concentration of 2.0×10^6 cells/plate, and then incubated for 48 hours. Then, the medium and the cells were separated by centrifugation, and each of collected substances was analyzed with HPTLC.
With regard to the saccharide primer Lac-C12 and the saccharide primer Lac-C13:1(2), their sugar chain extension efficiencies in B16 cells and amounts of the saccharide primers taken into the cells were compared by a quantitative analysis with a densitometer.

Structure (SMILES)	extended sugar chain product detected by HPTLC	sugar chain extension efficiency (amounts of extended sugar chain products) (B16 cells, medium fraction, 48 hours incubation, densitometer quantitation, compared with Lac-C12, listed as Lac-O-C13:1(2))
CCCCCCCCCCCCO[C@@H]1OC(CO)[C@@H](O[C@@H]2OC(CO)[C@H](O)[C@H](O)C2O)[C@H](O)C1O (stereo partly drawn) [Lac-C12, reference compound]	a product X′ was confirmed in both the medium fraction and the cell fraction	
CCCCCCCCCC/C=C/CO[C@@H]1OC(CO)[C@@H](O[C@@H]2OC(CO)[C@H](O)C(O)C2O)C(O)C1O (stereo partly drawn) [Lac-C13:1(2), 1-O-(trans-2-tridecenyl)-4-O-(β-D-galactopyranosyl)-β-D-glucopyranoside]	a product X was confirmed in both the medium fraction and the cell fraction	equal to or greater than those obtained by using a conventional primer

From patent US20110111986A1, “NOVEL SACCHARIDE PRIMER AND USE THEREOF” (KEIO UNIVERSITY, priority 2007, published 2011)
